Data as given in PMC6098011, “Insights into degradation mechanism of N-end rule substrates by p62/SQSTM1 autophagy adapter” (Nature Communications, 2018).
“Also recorded” adds a separate entry of the source.

Tests used:
[1] = target: T1, MBP-PB1-ZZ WT (p62 residues 1–181) (Homo sapiens, UniProt Q13501); test: FP binding assay, MBP-PB1-ZZ WT
T1 construct: The PB1-ZZ-domain of p62 (residues 1–181) WT and various mutants were expressed as MBP-fused forms; made in house; host or cells: Escherichia coli BL21(DE3)
Method: The PB1-ZZ-domain of p62 (residues 1–181) WT and various mutants were expressed as MBP-fused forms. […] The ZZ-domain (residues 122–181) WT and various mutants were expressed as GST-fused forms.
FITC-labeled R-BiP/GRP78 peptide and all mutant peptides were dissolved to 1 mM concentration in buffers (50 mM MES pH 6.0 [or 50 mM Tris pH 8.0], 100 mM NaCl, and 1 mM DTT) and sequentially diluted with binding buffer up to 100 nM in each 40 μL reaction well. Purified GST-ZZ, MBP-PB1-ZZ WT and the respective mutants were also serially diluted in binding buffer and mixed into each reaction well at a concentration ranging from 400 nM to 3 mM. […] A nonlinear graph of p62 construct concentration-dependent polarization was calculated and drawn using GraphPad Prism 7 software.

[2] = system: degradation of R-BiP protein and p62 in HeLa cells; test: Cycloheximide-chase protein degradation assay; assay type: cell-based; details: HA-p62 and Ub-R-BiP transfected, chloroquine 30 μM, 16 hr, 50 μg/ml cycloheximide 16 hr, immunoblotting
Method: HeLa cells were cultured in DMEM (HyClone) containing 10% FBS (HyClone) and 1% penicillin/streptomycin (HyClone). Cells were transiently transfected with plasmids using Lipofectamine 2000 (Invitrogen) for mammalian expression. For protein degradation analysis, HeLa cells at 80% confluence were transiently transfected with plasmids expressing HA-p62 (either WT or mutants) and Ub-R-BiP. For the blocking of protein synthesis, cells were treated with 50 μg/ml cycloheximide (Sigma-Aldrich) for […] prior to cell harvesting. Cultured cells were pelleted by centrifugation and pellets were resuspended in phosphate-buffered saline (PBS). A volume of 150 μl was then mixed with 150 μl of 5X SDS-PAGE loading buffer (125 mM Tris-HCl pH 6.8, 4% SDS, 10% 2-mercaptoethanol and 20% glycerol). Each sample was heated for 5 min and 0.1 mg of total protein was subjected to Western blotting. Following antibodies were used in this study: rabbit monoclonal anti-p62 (Cell Signaling Technology, 8025, 1:1000), rabbit polyclonal anti-R-BiP (Abfrontier, AR02-PA0001, 1:1000), mouse monoclonal anti-β-actin (Sigma-Aldrich, A5441, 1:20,000), rat monoclonal anti-HA (Roche, 1867431, 1:20,000), mouse monoclonal anti-His-HRP (Santa Cruz, sc-8036 HRP, 1:20,000) and mouse monoclonal anti-MBP-HRP (NEB, E8038S, 1:2000).
Supplementary Figure 7. Degradation assay of R-BiP and p62 protein […]

T1 sequence (Q13501 1-181): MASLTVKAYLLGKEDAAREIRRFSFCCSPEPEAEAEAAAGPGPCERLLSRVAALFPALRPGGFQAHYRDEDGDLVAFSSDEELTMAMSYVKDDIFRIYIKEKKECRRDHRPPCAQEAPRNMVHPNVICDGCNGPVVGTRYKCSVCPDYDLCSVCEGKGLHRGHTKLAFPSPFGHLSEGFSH

N=C(N)NCCC[C@H](N)C(=O)N[C@@H](CCC(=O)O)C(=O)N[C@@H](CCC(=O)O)C(=O)N[C@@H](CCC(=O)O)C(=O)N[C@@H](CC(=O)O)C(=O)N[C@@H](CCCCNC(=S)Nc1ccc2c(c1)C(=O)OC21c2ccc(O)cc2Oc2cc(O)ccc21)C(=O)O [R-BiP peptide]
Binding (dissociation constant) ([1]; pH 4.5): not detected | Binding (dissociation constant) ([1]; pH 5.0): not detected | Binding (dissociation constant) ([1]; pH 8.5): not detected | Binding (dissociation constant) ([1]; pH 9.0): not detected

CCN(CC)CCCC(C)Nc1ccnc2cc(Cl)ccc12 (centres unmarked) [chloroquine]
Degradation of R-BiP protein and p62 [2]: blocked; also recorded: not degraded
